Laboratory results reported in publication PMC3938481, “Molecular Cloning of a Novel Glucuronokinase/Putative Pyrophosphorylase from Zebrafish Acting in an UDP-Glucuronic Acid Salvage Pathway” (PLoS ONE, 2014).

Assays:
Experiment in all cases: coupled HPLC assay with pea UDP-sugar pyrophosphorylase
XtGKUP = target: T1, XtGKUP (Xenopus tropicalis, UniProt A0A6I8PZF0); type: biochemical; conditions: ATP, UTP, 4 mM MgCl2, 50 mM MOPS-KOH pH 7.5, 35°C
T1 construct: gene XB5896631; bifunctional enzyme cloned from tadpole first-strand cDNA; StrepII-tag, made in Nicotiana benthamiana leaves
T1 sequence (A0A6I8PZF0 1-619): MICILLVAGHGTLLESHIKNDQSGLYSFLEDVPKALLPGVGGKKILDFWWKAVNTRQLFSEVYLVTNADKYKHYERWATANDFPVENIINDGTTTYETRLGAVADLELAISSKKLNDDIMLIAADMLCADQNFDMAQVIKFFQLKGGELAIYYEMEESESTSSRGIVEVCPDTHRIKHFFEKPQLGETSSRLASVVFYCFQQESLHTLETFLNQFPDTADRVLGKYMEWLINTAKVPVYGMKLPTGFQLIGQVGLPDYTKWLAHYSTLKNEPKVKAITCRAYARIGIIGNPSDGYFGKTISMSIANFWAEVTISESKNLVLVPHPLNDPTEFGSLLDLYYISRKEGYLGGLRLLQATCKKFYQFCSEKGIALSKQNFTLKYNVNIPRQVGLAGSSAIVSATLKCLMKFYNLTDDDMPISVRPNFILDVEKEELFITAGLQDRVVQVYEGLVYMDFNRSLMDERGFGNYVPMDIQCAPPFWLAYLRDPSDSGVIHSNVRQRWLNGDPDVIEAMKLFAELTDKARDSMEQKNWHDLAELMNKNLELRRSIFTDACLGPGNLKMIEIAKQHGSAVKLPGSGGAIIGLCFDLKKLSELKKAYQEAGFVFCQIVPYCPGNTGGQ

DrGKUP = target: T2, DrGKUP (Danio rerio, UniProt F6NZ60); type: biochemical; conditions: UTP, 4 mM MgCl2, 50 mM MOPS-KOH pH 7.5, 35°C
T2 construct: gene gkup; full length, 619 residues, about 70 kDa; StrepII-tag, made in Nicotiana benthamiana leaves
T2 sequence (F6NZ60 1-619): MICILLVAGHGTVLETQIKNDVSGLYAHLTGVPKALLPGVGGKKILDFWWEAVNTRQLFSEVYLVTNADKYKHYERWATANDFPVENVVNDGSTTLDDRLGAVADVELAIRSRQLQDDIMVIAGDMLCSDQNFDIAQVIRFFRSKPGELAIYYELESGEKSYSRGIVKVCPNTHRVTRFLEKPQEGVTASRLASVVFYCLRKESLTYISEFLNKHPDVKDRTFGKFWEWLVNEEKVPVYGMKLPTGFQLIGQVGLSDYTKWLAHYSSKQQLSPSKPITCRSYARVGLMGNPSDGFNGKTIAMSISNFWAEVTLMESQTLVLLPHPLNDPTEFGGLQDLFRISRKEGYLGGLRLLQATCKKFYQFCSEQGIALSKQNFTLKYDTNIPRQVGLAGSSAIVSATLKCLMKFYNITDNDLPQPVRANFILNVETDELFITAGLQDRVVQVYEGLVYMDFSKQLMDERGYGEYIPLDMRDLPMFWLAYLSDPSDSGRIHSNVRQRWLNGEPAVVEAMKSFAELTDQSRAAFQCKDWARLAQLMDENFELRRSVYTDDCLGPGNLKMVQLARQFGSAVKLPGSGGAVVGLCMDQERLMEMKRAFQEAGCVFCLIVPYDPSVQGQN

[1] = substrate: Nc1ncnc2c1ncn2[C@@H]1O[C@H](COP(=O)(O)OP(=O)(O)OP(=O)(O)O)[C@@H](O)[C@H]1O; type: biochemical, Danio rerio; conditions: GlcA and UTP, 4 mM MgCl2, 50 mM MOPS-KOH pH 7.5, 35°C, ATP 0.01-1.4 mM
Text: coupled HPLC assay with pea UDP-sugar pyrophosphorylase on DrGK

In the case of `O=C(O)[C@H]1OC(O)[C@H](O)[C@@H](O)[C@@H]1O` (stereo partly drawn) [D-glucuronic acid], the “coupled HPLC assay with pea UDP-sugar pyrophosphorylase” value (shortened to “coupled HPLC assay”) (XtGKUP) is reported as “we can confirm the glucuronokinase activity for the Xenopus enzyme” and the “coupled HPLC assay” value (DrGKUP; ATP) is reported as “The recombinant full length DrGKUP as well as the DrGK alone catalyzes the phosphorylation of GlcA”.

With `Nc1ncnc2c1ncn2[C@@H]1O[C@H](COP(=O)(O)OP(=O)(O)OP(=O)(O)O)[C@@H](O)[C@H]1O` [ATP] the “coupled HPLC assay” value (DrGKUP; GlcA) was “The product is dependent on the presence of ATP, UTP and GlcA”.

B1: DrGK (Danio rerio) (protein)
chain: AHYSSKQQLSPSKPITCRSYARVGLMGNPSDGFNGKTIAMSISNFWAEVTLMESQTLVLLPHPLNDPTEFGGLQDLFRISRKEGYLGGLRLLQATCKKFYQFCSEQGIALSKQNFTLKYDTNIPRQVGLAGSSAIVSATLKCLMKFYNITDNDLPQPVRANFILNVETDELFITAGLQDRVVQVYEGLVYMDFSKQLMDERGYGEYIPLDMRDLPMFWLAYLSDPSDSGRIHSNVRQRWLNGEPAVVEAMKSFAELTDQSRAAFQCKDWARLAQLMDENFELRRSVYTDDCLGPGNLKMVQLARQFGSAVKLPGSGGAVVGLCMDQERLMEMKRAFQEAGCVFCLIVPYDPSVQGQN
notes: C-terminal glucuronokinase (GHMP kinase) domain only, 357 residues, 40 kDa, of the 619-residue DrGKUP (N-terminal ~260-residue pyrophosphorylase domain removed); StrepII-tag; made in Nicotiana benthamiana leaves
Work on B1 yielded a Km [1] of 59.3 ± 9.1 µM and a kcat [1] of 1.3 s⁻¹.
